For data set [1], the target named is T1, Beta-secretase 1 (Homo sapiens, UniProt P56817). Kind of data set: Inhibition of BACE1 in human HEK293 cells expressing swedish mutant APP. It is filed as cell-based.
For data set [2], the target named is T1, Beta-secretase 1. Nature of the data set: Inhibition of BACE1 by HPLC method.
Another data set relates to P-glycoprotein. Nature of the data set: Efflux ratio of permeability across basolateral to apical side over apical to basolateral side in human Caco2 cells expressing p-glycoprotein. The format is ADME, cell-based. As to conditions: Caco-2. (Passage across Caco-2 layers is used to estimate intestinal permeability.)

This passage reports IC50 and efflux ratio results from ChEMBL document CHEMBL1914313, “Monosubstituted γ-lactam and conformationally constrained 1,3-diaminopropan-2-ol transition-state isostere inhibitors of β-secretase (BACE)” (Bioorg Med Chem Lett, 2011).

T1 sequence (P56817 whole entry): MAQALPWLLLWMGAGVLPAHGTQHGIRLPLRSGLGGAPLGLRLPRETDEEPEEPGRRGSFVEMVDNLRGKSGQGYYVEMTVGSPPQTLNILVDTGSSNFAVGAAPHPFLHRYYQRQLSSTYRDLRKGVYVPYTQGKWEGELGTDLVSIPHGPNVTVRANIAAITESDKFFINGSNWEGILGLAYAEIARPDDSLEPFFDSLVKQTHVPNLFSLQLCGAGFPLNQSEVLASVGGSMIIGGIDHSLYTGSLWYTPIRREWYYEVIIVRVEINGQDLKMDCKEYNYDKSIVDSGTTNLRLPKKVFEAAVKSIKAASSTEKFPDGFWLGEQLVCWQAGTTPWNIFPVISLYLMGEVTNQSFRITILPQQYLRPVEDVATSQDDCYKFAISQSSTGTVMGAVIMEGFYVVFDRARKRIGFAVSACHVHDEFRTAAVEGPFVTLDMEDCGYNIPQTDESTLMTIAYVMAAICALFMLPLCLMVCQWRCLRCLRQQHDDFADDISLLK

With `CCC(C)[C@@]1(NC(C)=O)CCN([C@@H](CCc2ccccc2)C(=O)N[C@@H](Cc2cc(F)cc(F)c2)[C@H](O)[C@H]2C[C@@H](OCc3cccc(C(F)(F)F)c3)CN2)C1=O` (some centres not stated), the IC50 (as a rule, the midpoint of a concentration-inhibition curve) stood at 71 nM on Beta-secretase 1 [1] and 2.7 nM against Beta-secretase 1 [2].
On to `CCCC[C@H]1CCN([C@@H](CCc2ccccc2)C(=O)N[C@@H](Cc2cc(F)cc(F)c2)[C@H](O)[C@H]2C[C@H](O)CN2)C1=O`, for which the IC50 is 720 nM at Beta-secretase 1 [1] and 110 nM against Beta-secretase 1 [2].
With `CCCC[C@H]1CCN([C@@H](CCc2ccccc2)C(=O)N[C@@H](Cc2cc(F)cc(F)c2)[C@H](O)[C@H]2C[C@@H](Oc3ccccn3)CN2)C1=O`, at Beta-secretase 1 [1], inhibition was half-maximal at 360 nM (IC50).
Consider `CCC(C)[C@@]1(NC(C)=O)CCN([C@@H](CCc2ccccc2)C(=O)N[C@@H](Cc2cc(F)cc(F)c2)[C@H](O)[C@H]2C[C@@H](Oc3cccnc3)CN2)C1=O` (some centres not stated), for which the values for the IC50 at Beta-secretase 1 [1] and at Beta-secretase 1 [2] were 2.5 nM and 5.9 nM, respectively.
For the molecule `CCCO[C@H]1CN[C@@H]([C@@H](O)[C@H](Cc2cc(F)cc(F)c2)NC(=O)[C@H](CCc2ccccc2)N2CC[C@H](CC(C)C)C2=O)C1`, the values for the IC50 on Beta-secretase 1 [1] and against Beta-secretase 1 [2] were 69 nM and 5.7 nM, respectively.
The corresponding values for `CCCC[C@H]1CCN([C@@H](CCc2ccccc2)C(=O)N[C@@H](Cc2cc(F)cc(F)c2)[C@H](O)CNCc2cccc(OC)c2)C1=O` are 350 nM and 38 nM.
On to `COc1cccc(CNC[C@@H](O)[C@H](Cc2cc(F)cc(F)c2)NC(=O)[C@H](C)N2CC[C@H](CC(C)C)C2=O)c1`, for which the half-inhibitory concentration (IC50) against Beta-secretase 1 [1] is 67 nM; at Beta-secretase 1 [2], 89 nM.
In the case of `CCC(C)[C@@]1(NC(C)=O)CCN([C@@H](CCc2ccccc2)C(=O)N[C@@H](Cc2cc(F)cc(F)c2)[C@H](O)[C@H]2C[C@@H](OCc3cccnc3)CN2)C1=O` (some centres not stated), the IC50 turned out to be 2 nM at Beta-secretase 1 [1] and 1.4 nM against Beta-secretase 1 [2].
On the same counts, the results for `CCC(C)[C@@]1(NC(C)=O)CCN([C@@H](CCc2ccccc2)C(=O)N[C@@H](Cc2cc(F)cc(F)c2)[C@H](O)[C@H]2C[C@@H](Oc3ccccc3)CN2)C1=O` (some centres not stated) are 1.4 nM and 2.6 nM.
On the same counts, the results for `CCC(C)[C@@]1(NC(C)=O)CCN([C@@H](CCc2ccccc2)C(=O)N[C@@H](Cc2cc(F)cc(F)c2)[C@H](O)[C@H]2Cc3ccccc3CN2)C1=O` (some centres not stated) are 110 nM and 54 nM.
On to `CC(C)C[C@H]1CCN([C@@H](C)C(=O)N[C@@H](Cc2cc(F)cc(F)c2)[C@H](O)[C@H]2C[C@@H](Oc3ccccn3)CN2)C1=O`, for which, on Beta-secretase 1 [1], the concentration for half-maximal inhibition (IC50) worked out at 330 nM.
With `CCCC[C@H]1CCN([C@@H](C)C(=O)N[C@@H](Cc2cc(F)cc(F)c2)[C@H](O)[C@H]2C[C@@H](OCCC)CN2)C1=O`, in the data set with P-glycoprotein, the efflux ratio – broadly, the permeability from basolateral to apical divided by that in the opposite direction, in the common usage – is over 17. Moreover, the concentration for half-maximal inhibition (IC50) at Beta-secretase 1 [1] is 68 nM; on Beta-secretase 1 [2], 87 nM.
For the molecule `CCC(C)[C@@]1(NC(C)=O)CCN([C@@H](CCc2ccccc2)C(=O)N[C@@H](Cc2cc(F)cc(F)c2)[C@H](O)[C@H]2C[C@@H](OCc3ccccc3)CN2)C1=O` (some centres not stated), the half-maximal inhibitory concentration (IC50) against Beta-secretase 1 [1] worked out at 12 nM.
With `CCC(C)[C@@]1(NC(C)=O)CCN([C@@H](CCc2ccccc2)C(=O)N[C@@H](Cc2cc(F)cc(F)c2)[C@H](O)[C@H]2Cc3cccc(OC)c3CN2)C1=O` (some centres not stated), the figures for the half-inhibitory concentration (IC50) against Beta-secretase 1 [1] and against Beta-secretase 1 [2] were 20 nM and 4.2 nM, respectively.
With `CCC[C@@H](O)[C@H]1CCN([C@@H](CCc2ccccc2)C(=O)N[C@@H](Cc2cc(F)cc(F)c2)[C@H](O)[C@H]2C[C@H](O)CN2)C1=O`, the IC50 against Beta-secretase 1 [1] was 220 nM; at Beta-secretase 1 [2], 16 nM.
As to `COc1cccc(CNC[C@@H](O)[C@H](Cc2cc(F)cc(F)c2)NC(=O)[C@H](C)N2CC[C@@](CC3CC3)(NC(C)=O)C2=O)c1`, the IC50 against Beta-secretase 1 [1] was determined as 27 nM; against Beta-secretase 1 [2], 46 nM.
Regarding `CCC(C)[C@@]1(NC(C)=O)CCN([C@@H](CCc2ccccc2)C(=O)N[C@@H](Cc2cc(F)cc(F)c2)[C@H](O)[C@H]2C[C@@H](N)CN2)C1=O` (some centres not stated), the figures for the IC50 against Beta-secretase 1 [1] and on Beta-secretase 1 [2] were 270 nM and 34 nM, respectively.
The corresponding values for `COc1cccc(CNC[C@@H](O)[C@H](Cc2cc(F)cc(F)c2)NC(=O)[C@H](CCc2ccccc2)N2CC[C@@](CC3CC3)(NC(C)=O)C2=O)c1` are 10 nM and 11 nM.
On the same counts, the results for `COc1cccc(CNC[C@@H](O)[C@H](Cc2cc(F)cc(F)c2)NC(=O)[C@H](C)N2CC[C@H](C(C)C)C2=O)c1` are 240 nM and 170 nM.
In the case of `CCC(C)[C@@]1(NC(C)=O)CCN([C@@H](CCc2ccccc2)C(=O)N[C@@H](Cc2cc(F)cc(F)c2)[C@H](O)[C@H]2C[C@@H](OCc3ccc(F)cc3)CN2)C1=O` (some centres not stated), the concentration for half-maximal inhibition (IC50) was determined as 8.9 nM on Beta-secretase 1 [1] and 10 nM at Beta-secretase 1 [2].
The corresponding values for `COc1cccc(CNC[C@@H](O)[C@H](Cc2cc(F)cc(F)c2)NC(=O)[C@H](CCc2ccccc2)N2CC[C@H](C(C)C)C2=O)c1` are 220 nM and 75 nM.
For `CCCO[C@H]1CN[C@@H]([C@@H](O)[C@H](Cc2cc(F)cc(F)c2)NC(=O)[C@H](C)N2CC[C@H](CC(C)C)C2=O)C1`, the efflux ratio in the data set with P-glycoprotein is 32. The IC50 on Beta-secretase 1 [1] stood at 110 nM; against Beta-secretase 1 [2], 35 nM.
As to `CC(=O)N[C@]1(CC(C)C)CCN([C@@H](CCc2ccccc2)C(=O)N[C@@H](Cc2cc(F)cc(F)c2)[C@H](O)[C@H]2Cc3ccccc3CN2)C1=O`, the IC50 on Beta-secretase 1 [1] was 9.5 nM; against Beta-secretase 1 [2], 8.6 nM.
For the molecule `COc1cccc(CNC[C@@H](O)[C@H](Cc2cc(F)cc(F)c2)NC(=O)[C@H](CCc2ccccc2)N2CC[C@H](CC(C)C)C2=O)c1`, the half-maximal inhibitory concentration (IC50) at Beta-secretase 1 [1] came to 240 nM; against Beta-secretase 1 [2] it was 20 nM.
On the same counts, the results for `CCCO[C@H]1CN[C@@H]([C@@H](O)[C@H](Cc2cc(F)cc(F)c2)NC(=O)[C@H](C)N2CC[C@H]([C@H](O)CCC)C2=O)C1` are 55 nM and 70 nM.
On the same counts, the results for `CCCO[C@H]1CN[C@@H]([C@@H](O)[C@H](Cc2cc(F)cc(F)c2)NC(=O)[C@H](CCc2ccccc2)N2CC[C@H]([C@H](O)CCC)C2=O)C1` are 48 nM and 4.7 nM.
On the same counts, the results for `CCC(C)[C@@]1(NC(C)=O)CCN([C@@H](CCc2ccccc2)C(=O)N[C@@H](Cc2cc(F)cc(F)c2)[C@H](O)[C@H]2C[C@@H](OCc3cccc(C#N)c3)CN2)C1=O` (some centres not stated) are 4.2 nM and 3 nM.
Turning to `COC[C@H]1CCN([C@@H](CCc2ccccc2)C(=O)N[C@@H](Cc2cc(F)cc(F)c2)[C@H](O)CNCc2cccc(OC)c2)C1=O`, the IC50 amounted to 210 nM against Beta-secretase 1 [1] and 32 nM at Beta-secretase 1 [2].
With `CCCO[C@H]1CN[C@@H]([C@@H](O)[C@H](Cc2cc(F)cc(F)c2)NC(=O)[C@H](CCc2ccccc2)N2CC[C@@](CC(C)C)(NC(C)=O)C2=O)C1`, the efflux ratio in the data set with P-glycoprotein was over 12. On Beta-secretase 1 [1], this molecule gave a 50% inhibitory concentration (IC50) of 2 nM.
In the case of `CCC(C)[C@@]1(NC(C)=O)CCN([C@@H](CCc2ccccc2)C(=O)N[C@@H](Cc2cc(F)cc(F)c2)[C@H](O)[C@H]2C[C@@H](Oc3ccccn3)CN2)C1=O` (some centres not stated), the IC50 came out at 2.1 nM at Beta-secretase 1 [1] and 2.6 nM on Beta-secretase 1 [2].
Regarding `CCCO[C@H]1CN[C@@H]([C@@H](O)[C@H](Cc2cc(F)cc(F)c2)NC(=O)[C@H](CCc2ccccc2)N2CC[C@H](COC)C2=O)C1`, the IC50 was 89 nM at Beta-secretase 1 [1] and 23 nM against Beta-secretase 1 [2].
The corresponding values for `CCCC[C@H]1CCN([C@@H](C)C(=O)N[C@@H](Cc2cc(F)cc(F)c2)[C@H](O)[C@H]2C[C@H](O)CN2)C1=O` are 1400 nM and 96 nM.
Take `CCC(C)[C@@]1(NC(C)=O)CCN([C@@H](CCc2ccccc2)C(=O)N[C@@H](Cc2cc(F)cc(F)c2)[C@H](O)[C@H]2C[C@@H](OCc3ccccn3)CN2)C1=O` (some centres not stated): the IC50 against Beta-secretase 1 [1] amounted to 1.3 nM; against Beta-secretase 1 [2] it was 1.5 nM.
Consider `CCC(C)[C@@]1(NC(C)=O)CCN([C@@H](CCc2ccccc2)C(=O)N[C@@H](Cc2cc(F)cc(F)c2)[C@H](O)[C@H]2C[C@H](N)CN2)C1=O` (some centres not stated), for which the IC50 was found to be 190 nM against Beta-secretase 1 [1] and 50 nM at Beta-secretase 1 [2].
In the case of `CCCO[C@H]1CN[C@@H]([C@@H](O)[C@H](Cc2cc(F)cc(F)c2)NC(=O)[C@H](C)N2CC[C@H](C(C)C)C2=O)C1`, the values for the IC50 on Beta-secretase 1 [1] and at Beta-secretase 1 [2] were 390 nM and 160 nM, respectively.
For the molecule `CCC[C@@H](O)[C@H]1CCN([C@@H](CCc2ccccc2)C(=O)N[C@@H](Cc2cc(F)cc(F)c2)[C@H](O)CNCc2cccc(OC)c2)C1=O`, the 50% inhibitory concentration (IC50) against Beta-secretase 1 [1] worked out at 90 nM; at Beta-secretase 1 [2], 5.2 nM.
In turn, `CCC(C)[C@@]1(NC(C)=O)CCN([C@@H](CCc2ccccc2)C(=O)N[C@@H](Cc2cc(F)cc(F)c2)[C@H](O)CNCc2cccc(OC)c2)C1=O` (some centres not stated) had a 50% inhibitory concentration (IC50) at Beta-secretase 1 [2] of 6.1 nM.
`CCC(C)[C@@]1(NC(C)=O)CCN([C@@H](C)C(=O)N[C@@H](Cc2cc(F)cc(F)c2)[C@H](O)[C@H]2C[C@H](O)CN2)C1=O` (some centres not stated): the IC50 against Beta-secretase 1 [1] is over 660 nM; on Beta-secretase 1 [2], 31 nM.
Regarding `CCCC[C@H]1CCN([C@@H](CCc2ccccc2)C(=O)N[C@@H](Cc2cc(F)cc(F)c2)[C@H](O)[C@H]2C[C@@H](O)CN2)C1=O`, the IC50 at Beta-secretase 1 [1] was found to be 650 nM; on Beta-secretase 1 [2], 25 nM.
The corresponding values for `CCC[C@@H](O)[C@H]1CCN([C@@H](C)C(=O)N[C@@H](Cc2cc(F)cc(F)c2)[C@H](O)[C@H]2C[C@H](O)CN2)C1=O` are 870 nM and 40 nM.
`COC[C@H]1CCN([C@@H](C)C(=O)N[C@@H](Cc2cc(F)cc(F)c2)[C@H](O)CNCc2cccc(OC)c2)C1=O`: the IC50 on Beta-secretase 1 [1] is 400 nM; at Beta-secretase 1 [2], 480 nM.
On Beta-secretase 1 [1], `CC(C)C[C@H]1CCN([C@@H](CCc2ccccc2)C(=O)N[C@@H](Cc2cc(F)cc(F)c2)[C@H](O)[C@H]2C[C@@H](Oc3ccccn3)CN2)C1=O` returned an IC50 of 510 nM.
For the molecule `CCC[C@@H](O)[C@H]1CCN([C@@H](C)C(=O)N[C@@H](Cc2cc(F)cc(F)c2)[C@H](O)CNCc2cccc(OC)c2)C1=O`, the values for the IC50 against Beta-secretase 1 [1] and on Beta-secretase 1 [2] were 27 nM and 68 nM, respectively.
On to `CCCO[C@H]1CN[C@@H]([C@@H](O)[C@H](Cc2cc(F)cc(F)c2)NC(=O)[C@H](CCc2ccccc2)N2CC[C@H](C(C)C)C2=O)C1`, for which the IC50 was determined as 99 nM against Beta-secretase 1 [1] and 21 nM against Beta-secretase 1 [2].
Turning to `CCC(C)[C@@]1(NC(C)=O)CCN([C@@H](CCc2ccccc2)C(=O)N[C@@H](Cc2cc(F)cc(F)c2)[C@H](O)[C@H]2C[C@@H](O)CN2)C1=O` (some centres not stated), the figures for the half-maximal inhibitory concentration (IC50) against Beta-secretase 1 [1] and against Beta-secretase 1 [2] were 29 nM and 6.5 nM, respectively.
